Measured values reported in patent US20240181022A1, “AMURINS LYSINS, AND LYSIN-ANTIMICROBIAL PEPTIDE (AMP) CONSTRUCTS ACTIVE AGAINST GRAM-NEGATIVE BACTERIA” (priority 2021, published 2024).
≈ marks a conversion by molar mass, not a printed value. Where “and” joins values, the source holds several entries; their conditions need not be identical. Equal entries are not always repeated. Where two headings read alike, the source gives them in different places. Where a SMILES comes first, the peptide text is derived from it.

How the values were obtained:
M. scrofulaceum = assay: MIC against M. scrofulaceum; type: cell-based, Mycobacterium scrofulaceum; conditions: M. scrofulaceum (ATCC 19981); CAAT media
M. smegmatis = assay: MIC against M. smegmatis; type: cell-based, Mycobacterium smegmatis; conditions: M. smegmatis (MC 155); CAAT media
Mycobacterium species = type: cell-based
M. tuberculosis = type: cell-based, Mycobacterium tuberculosis
M. kansasii = assay: MIC against M. kansasii; type: cell-based, Mycobacterium kansasii; conditions: M. kansasi (ATCC 12478); CAAT media
M. avium = assay: MIC against M. avium; type: cell-based, Mycobacterium avium; conditions: M. avium (ATCC 700898); CAAT media
M. intracellulare = assay: MIC against M. intracellulare; type: cell-based, Mycobacterium intracellulare; conditions: M. intracellulare (ATCC 13950); CAAT media
M. abscessus = assay: MIC against MDR M. abscessus isolates; type: cell-based, Mycobacterium abscessus; conditions: 7 days, AST media (CAAT)
M. fortuitum = assay: MIC against M. fortuitum; type: cell-based, Mycobacterium fortuitum; conditions: M. fortuitum (ATCC 6841); CAAT media
E. cloacae = assay: Checkerboard synergy assay (FICI) against E. cloacae; type: cell-based, Enterobacter cloacae; conditions: E. cloacae ATCC 13047
Description: (§1) Any known method to assess MIC may be used.
(§2) Checkerboards are constructed by first preparing columns of e.g., a 96-well polypropylene microtiter plate, wherein each well has the same amount of antibiotic diluted 2-fold along the horizontal axis. […] Bacteria are added to the drug combinations at concentrations of 1×10^5 […] in CAA, for example, with or without human serum or pulmonary surfactant. […] Summation fractional inhibitory concentrations (ΣFICs) are calculated for each drug and the minimum ΣFIC value (ΣFICmin) is used to determine the effect of the Chp peptide/antibiotic combination.
(§3) GN370 was further tested in combination with up to seven additional antibiotics (in addition to meropenem) against a variety of bacterial strains, including P. aeruginosa, A. baumannii, E. coli, E. cloacae, and K. pneumoniae. GN370 and the subject antibiotics were tested in a checkerboard assay format, and FICI values were determined, wherein ≤0.5 indicates synergy, >0.5-≤1 indicates additive; and >1 indicates indifferent.

A. baumannii = assay: Checkerboard synergy assay (FICI) against A. baumannii; type: cell-based, Acinetobacter baumannii; conditions: A. baumannii ATCC BAA-747
Description: as §1, §2, §3

K. pneumoniae = assay: Checkerboard synergy assay (FICI) against K. pneumoniae; type: cell-based, Klebsiella pneumoniae; conditions: K. pneumoniae HM-44
Description: as §1, §2, §3

P. aeruginosa [1] = assay: Checkerboard synergy assay (FICI) with antibiotics against P. aeruginosa; type: cell-based, Pseudomonas aeruginosa; conditions: for FICI of the antibiotic with GN370: P. aeruginosa ATCC 27853, checkerboard
Description: as §1, §2
The synergy of GN370 with meropenem was evaluated against 3 different strains of P. aeruginosa and three different strains of B. cenocepacia.
as §3

P. aeruginosa [2] = conditions: […], before serial passage
E. coli = assay: Checkerboard synergy assay (FICI) against E. coli; type: cell-based, Escherichia coli; conditions: E. coli ATCC 25922
Text: In some embodiments, the Chp peptides disclosed herein or active fragments thereof reduce the minimum inhibitory concentration (MIC) of an antibiotic in the presence and/or absence of human serum, pulmonary surfactant, and/or sputum, including human sputum and human sputum from a cystic fibrosis patient. Any known method to assess MIC may be used. In some embodiments, a checkerboard assay is used to determine the effect of a Chp peptide or active fragment thereof on antibiotic concentration. The checkerboard assay is based on a modification of the CLSI method for MIC determination by broth microdilution (See Clinical and Laboratory Standards Institute (CLSI), CLSI. 2015. Methods for Dilution Antimicrobial Susceptibility Tests for Bacteria That Grow Aerobically; Approved Standard-10th Edition. Clinical and Laboratory Standards Institute, Wayne, PA, which is herein incorporated by reference in its entirety and Ceri et al. 1999. J. Clin. Microbiol. 37: 1771-1776, which is also herein incorporated by reference in its entirety).
Checkerboards are constructed by first preparing columns of e.g., a 96-well polypropylene microtiter plate, wherein each well has the same amount of antibiotic diluted 2-fold along the horizontal axis. […] The Chp peptide or active fragment thereof and antibiotic dilutions are then combined, so that each column has a constant amount of antibiotic and doubling dilutions of Chp peptide, while each row has a constant amount of Chp peptide and doubling dilutions of antibiotic. Each well thus has a unique combination of Chp peptide and antibiotic. Bacteria are added to the drug combinations at concentrations of 1×10^5 GFU/ml in CAA, for example, with or without human serum or pulmonary surfactant. […] Summation fractional inhibitory concentrations (ΣFICs) are calculated for each drug and the minimum ΣFIC value (ΣFICmin) is used to determine the effect of the Chp peptide/antibiotic combination.
as §3

`CC[C@H](C)[C@H](NC(=O)CNC(=O)CNC(=O)[C@H](CCCNC(=N)N)NC(=O)[C@H](CCSC)NC(=O)[C@@H](NC(=O)[C@H](CCCNC(=N)N)NC(=O)[C@H](CCCNC(=N)N)NC(=O)[C@H](CC(C)C)NC(=O)[C@H](CCCNC(=N)N)NC(=O)[C@H](CC(N)=O)NC(=O)[C@H](CCCNC(=N)N)NC(=O)[C@@H]1CCCN1C(=O)[C@H](Cc1c[nH]cn1)NC(=O)[C@H](CCSC)NC(=O)[C@H](CCCNC(=N)N)NC(=O)[C@H](CC(C)C)NC(=O)[C@H](C)NC(=O)[C@@H](NC(=O)[C@H](CCCNC(=N)N)NC(=O)[C@H](CO)NC(=O)[C@H](Cc1ccccc1)NC(=O)[C@H](CC(C)C)NC(=O)[C@H](CCCNC(=N)N)NC(=O)[C@H](CCCNC(=N)N)NC(=O)[C@H](CO)NC(=O)[C@H](CCCNC(=N)N)NC(=O)[C@H](CCCNC(=N)N)NC(=O)[C@H](CCCNC(=N)N)NC(=O)[C@@H]1CCCN1C(=O)[C@H](CC(C)C)NC(=O)[C@H](CCCNC(=N)N)NC(=O)[C@H](Cc1ccc(O)cc1)NC(=O)[C@H](CCCNC(=N)N)NC(=O)[C@H](CCCNC(=N)N)NC(=O)[C@H](CCCNC(=N)N)NC(=O)[C@H](C)NC(=O)[C@@H](N)CCSC)[C@@H](C)O)[C@@H](C)CC)C(=O)N[C@@H](CCCNC(=N)N)C(=O)N[C@@H](Cc1ccccc1)C(=O)O` [AM18] (H-MARRRYRLPRRRSRRLFSRTALRMHPRNRLRRIMRGGIRF-OH) was tested, and the MIC (M. scrofulaceum) was 4 µg/mL (≈ 0.772 µM), the MIC (M. smegmatis) was 0.25 µg/mL (≈ 0.0483 µM) and the “activity (MIC) against Mycobacterium species” value (Mycobacterium species) was “highest activity”. For the same compound, the MIC (M. tuberculosis; M. tuberculosis (ATCC 35817), (ADC, T) media) was 4 µg/mL (≈ 0.772 µM), the MIC (M. tuberculosis; M. tuberculosis strain TN8109_LB (MDR), 7H9 broth, 20 days) was 1 µg/mL (≈ 0.193 µM) and the MIC (M. tuberculosis; M. tuberculosis strain TN8562_M33 (susc), 7H9 broth, 20 days) was 2 µg/mL (≈ 0.386 µM). The MIC (M. tuberculosis; M. tuberculosis strain TN10525_LL (MDR), 7H9 broth, 20 days) was 1 µg/mL (≈ 0.193 µM), the MIC (M. tuberculosis; M. tuberculosis strain TN10571_KY (MDR), 7H9 broth, 20 days) was 2 µg/mL (≈ 0.386 µM) and the MIC (M. tuberculosis; M. tuberculosis strain TN12657_KQ15 (IS), 7H9 broth, 20 days) was 1 µg/mL (≈ 0.193 µM). For the same compound, the MIC (M. tuberculosis; M. tuberculosis strain TN13923_HD17 (susc), 7H9 broth, 20 days) was 1 µg/mL (≈ 0.193 µM), the MIC (M. tuberculosis; M. tuberculosis strain TN18349_W738 (susc), 7H9 broth, 20 days) was 2 µg/mL (≈ 0.386 µM) and the MIC (M. tuberculosis; M. tuberculosis strain TN34503_001 (susc), 7H9 broth, 20 days) was 0.5 µg/mL (≈ 0.0965 µM). For the same compound, the MIC (M. kansasii) was 4 µg/mL (≈ 0.772 µM), the MIC (M. avium) was 2 Tg/mL and the MIC (M. intracellulare) was 1 µg/mL (≈ 0.193 µM). It also gave an MIC (M. abscessus; M. abscessus strain BK51402) of 2 µg/mL (≈ 0.386 µM), an MIC (M. abscessus; M. abscessus strain BK51403 (ATCC 19977)) of 1 µg/mL (≈ 0.193 µM) and an MIC (M. abscessus; M. abscessus strain BK51408) of 4 µg/mL (≈ 0.772 µM). It also gave an MIC (M. abscessus; M. abscessus strain BK55096) of 4 µg/mL (≈ 0.772 µM), an MIC (M. abscessus; M. abscessus strain BK55691) of 2 µg/mL (≈ 0.386 µM) and an MIC (M. abscessus; M. abscessus strain BK58156) of 16 µg/mL (≈ 3.09 µM). The MIC (M. fortuitum) was 2 µg/mL (≈ 0.386 µM).
In the case of `C[C@H]1[C@H](NC(=O)/C(=N\OC(C)(C)C(=O)O)c2csc(N)n2)C(=O)N1S(=O)(=O)O` [Aztreonam], the “FICI of the antibiotic with GN370” value (E. cloacae) is reported as 0.25, the “FICI of the antibiotic with GN370” value (A. baumannii) is reported as 0.313 and the “FICI of the antibiotic with GN370” value (K. pneumoniae) is reported as 0.375. The “FICI of the antibiotic with GN370” value (P. aeruginosa [1]) was 0.375.
`Cc1nnc(SCC2=C(C(=O)O)N3C(=O)[C@@H](NC(=O)Cn4cnnn4)[C@H]3SC2)s1` [Cefazolin] was tested, and the “FICI of the antibiotic with GN370” value (A. baumannii) was 0.5 and the “FICI of the antibiotic with GN370” value (K. pneumoniae) was 0.375.
In the case of `NC[C@H]1O[C@H](O[C@H]2[C@H](O)[C@@H](O[C@H]3O[C@H](CO)[C@@H](O)[C@H](N)[C@H]3O)[C@H](N)C[C@@H]2N)[C@H](N)C[C@@H]1O` [tobramycin, reference compound], the “FICI of the antibiotic with GN370” value (E. cloacae) is reported as 0.5, the “FICI of the antibiotic with GN370” value (A. baumannii) is reported as 0.5 and the “FICI of the antibiotic with GN370” value (K. pneumoniae) is reported as 0.375. For the same compound, the “FICI of the antibiotic with GN370” value (P. aeruginosa [1]) was 0.5, the Antibiotic MIC (single agent) (P. aeruginosa [1]; P. aeruginosa strain AR-769) was 0.125 µg/mL and the “Antibiotic FIC” value (P. aeruginosa [1]; P. aeruginosa strain AR-769, in combination with GN370) was 0.125. For the same compound, the “Antibiotic MIC (combo)” value (P. aeruginosa [1]; P. aeruginosa strain AR-769, in combination with GN370, in µg/mL) was 0.016 and 0.015, the MIC (M. avium) was 0.125 Tg/mL and the MIC (P. aeruginosa [2]) was 0.002 µg/mL (≈ 0.00428 µM). The “FICI of the antibiotic with GN370” value (E. coli) was 0.25.
